# According to patent US20240018129A1, “COMPOUNDS AS PU. 1 INHIBITORS” (PEKING UNIVERSITY, priority 2020, published 2024):
# Assays:
# PU.1 [1] = target: T1, PU.1 (Mus musculus, UniProt P17433); assay: q-PCR of TIM-3 expression in Blast-PU.1 cells (PU.1 inhibition potency); format: cell-based; settings: 10 μM, Blast-PU.1 cells, 24 h treatment, q-PCR
# T1 construct: EGFP (from 'PU.1-EGFP-vector'); expressed in transfected cells
# Description: An acute T cell lymphoblastic leukemia (T-ALL) disease model was used to evaluate the effect of the newly synthesized compounds on PU.1 inhibition. Pten, a famous tumor suppressor gene, was […] deleted in mouse hematopoietic stem cells and their differentiated progeny, and this would eventually lead to a progressive T-ALL in about two months from born. It is believed that immune checkpoint T cell immunoglobulin mucin-3 (TIM-3), a surface marker for the isolation of pure leukemia-initiating cells (LICs), is transcriptionally regulated by transcription factor PU.1 in the Pten-null T-ALL model. Therefore, the expression level of TIM-3 was detected and quantified to characterize the inhibition potency of the compounds after 24 h treatment of graded concentrations of compounds. Blast cells were transfected with either PU.1-EGFP-vector or EGFP-vector to yield stable cell lines blast-PU.1 and blast-EGFP, respectively. These cell lines were used for compound testing in vitro. Compounds DB1976 and DB2115 were tested as well for comparison. Blast-PU.1 and blast-EGFP are the ideal cell lines for compounds testing in vitro, since they are T-ALL blast cells with […] TIM-3 and PU.1 expression level.
# [2] = system: bleomycin-induced skin fibrosis; assay: bleomycin-induced skin fibrosis, preventive and therapeutic models; format: in vivo, mouse
# Method: Methods: To evaluate the preventive and therapeutic effects of compound I-1 on skin fibrosis, bleomycin was used to establish two animal models of skin fibrosis with different drug intervention (6-8 weeks, C57BL/6, male). Skin fibrosis was induced by local injection of bleomycin (0.5 mg/mL, 0.1 ml/mouse) in a skin defined area (˜1 cm^2), where the hair was removed in advance, at the upper back every other day. Subcutaneous saline injections served as controls. (I) Preventive model of bleomycin-induced skin fibrosis: Compound I-1, positive control DB1976, or vehicle (saline) were injected i.p. simultaneously with bleomycin for 4 weeks (FIG. 3a). (II) Therapeutic model of bleomycin-induced skin fibrosis: Mice were pre-charged with bleomycin for 3 weeks to induce skin fibrosis, then treated with compound I-1, positive control DB1976, or vehicle (saline) for another 3 weeks, total time is 6 weeks after the first bleomycin treatment (FIG. 30. After the last day of treatment of both models, mice were fasted overnight and euthanized. Part of the skin was fixed with paraformaldehyde after fully flat on a foil, embedded with paraffin, and then sliced for H&E, Sirius red and Masson staining to check pathological features. The epidermal thickness of each sample was calculated quantitatively with image J. Another part of skin was collected and stored at −80° C. after liquid nitrogen quick-freezing, RNA isolation (Code.R6934, OMEGA, USA), first cDNA reverse (Code.AT341, TransGen, China), SYBR mix (Code.AQ601, TransGen, China) for Q-PCR (LightCycler® 96, Roche) to verify several fibrosis-related genes mRNA level, such as, Col1a1 and Col1a2.
# [3] = system: bleomycin-induced pulmonary fibrosis; assay: bleomycin-induced pulmonary fibrosis, preventive and therapeutic models; format: in vivo, mouse; settings: preventive model, 5mpk i.p. for 4 weeks after single bleomycin injection
# Method: Methods: To evaluate the preventive and therapeutic effects of compound I-1 on pulmonary fibrosis, bleomycin was used to establish two animal models of pulmonary fibrosis with different drug intervention (6-8 weeks, C57BL/6, male). Bleomycin (0.025U, Code.D11063, OKA, China) was injected by a single intratracheal application. Equal volumes of sterilized saline served as a control. (I) Preventive model of bleomycin-induced pulmonary fibrosis. Compounds compound I-1, positive control DB1976, or vehicle (saline) were treated (injected intraperitoneally, i.p.) immediately after single bleomycin injection for 4 weeks (FIG. 4a). (II) Therapeutic model of bleomycin-induced pulmonary fibrosis. Mice were pre-charged with bleomycin for 11 days to induced pulmonary fibrosis, then treated with compounds compound I-1, positive control DB1976, or vehicle (saline) for 17 days, total time is 4 weeks after bleomycin treatment (FIG. 4h). After the last day of treatment of both models, mice were fasted overnight and euthanized. A part of lung was fixed with paraformaldehyde, embedded with paraffin, and then sliced for H&E and Sirius red staining to check pathological features, and Ashcroft scores. Hubner, R. H. et al. Biotechniques 44, 507-511, 514-507, doi:10.2144/000112729 (2008). Another part of lung were collected and stored in −80° C. after liquid nitrogen quick-freezing, RNA isolation (Code.R6934, OMEGA, USA), first cDNA reverse (Code.AT341, TransGen, China), SYBR mix (Code.AQ601, TransGen, China) for Q-PCR (LightCycle96, Roche) to verify several fibrosis-related genes mRNA level, such as, Col1a1 and Col1a2.
# NASH diet-induced NASH = NASH diet-induced NASH model; format: in vivo, mouse; settings: 2.5mpk i.p. daily for 6 weeks
# Description: (§1) Methods: To evaluate the potential therapeutic effects of compound I-1 on liver disorders, including liver fat steatosis and accumulation, nonalcoholic fatty liver disease (NAFLD), nonalcoholic steatosis hepatitis (NASH), and liver fibrosis, three mice models (C57BL/6, male, 8 weeks old) were used. (I) NASH diet (Code.TD.160785, ENVIGO, USA)-induced NASH model: All mice were fed with NASH diet for 10 weeks. Mice were then randomly distributed into three groups, and each group was assigned to be injected daily with vehicle, compound I-1 (2.5mpk or 5mpk, i.p.), or DB1976 (2.5mpk, i.p, as a positive control) for another 6 weeks on continuous NASH diet. A group with normal regular diet was treated with vehicle as health control. (II) High-fat diet (HFD) combinate with CCl4 (lower dose)—induced NASH model. Mice were fed with normal regular diet or HFD (kcal fat 60%—D12492, research diets) for 10 weeks, then the HFD mice were divided into two groups randomly based on the rule of minimum weight differences. Each group was assigned to be injected with CCl4 (25% v/v in olive oil, 0.5 mL/kg body weight) or pure olive oil (i.p.) twice a week for 4 weeks. Compound 1-1 or vehicle (saline) were injected (i.p.) once daily for 4 weeks at the same time with CCl4 under continuous HFD. (III) CCl4 (higher dose)—induced liver fibrosis model. Liver fibrosis was induced by CCl4 injection (20% v/v in olive oil, 10 mL/kg body weight) twice a week for 6 weeks, compound I-1 or vehicle are also injected (i.p.) once daily for 6 weeks at the same time with CCl4 application. Ail the mice in the above-mentioned three models were observed daily. After the last day of treatment of all the models, mice were fasted overnight and euthanized. Serum was collected after centrifuging of the whole blood at 4 degrees, and blood biochemistry parameters were tested through automatic biochemical instrument (BS-240VET, Mindray). Part of liver tissues were fixed with paraformaldehyde, embedded with paraffin, and then sliced for H&E or Sirius red staining to check pathological features, and NAFLD scores. Kleiner, D. E. et al. Hepatology 41, 1313-1321, doi:10.1002/hep.20701 (2005). Part of liver tissues were used fresh, embedded in optimum cutting temperature compound, and sectioned. The sections were stained with 0.5% oil red 0 according to standard procedures after fixed in 4% paraformaldehyde in PBS. Another part of liver tissues were collected and stored in −80° C. after liquid nitrogen quick-freezing, RNA. isolation (Code.R6934, OMEGA., USA), first cDNA reverse (Code.AT341, TransGen, China), SYBR mix (Code.AQ601, TransGen, China) for Q-PCR (LightCycler®96, Roche) to verify genes mRNA level, such as, fibrosis-related genes, Col1a1 and Col1a2; inflammation-related genes, IL-6 and IL-1β.
# [4] = system: HFD/CCL4-induced NASH and liver fibrosis; assay: High-fat diet (HFD) combined with CCl4 (lower dose)-induced NASH model; format: in vivo, mouse
# Description: as §1
# [5] = system: skin, liver and lung fibrosis; settings: Wohlfahrt et al., Nature 2019; cited from earlier work
# NASH = settings: in vivo; Liu et al., J Hepatol 2020; cited from earlier work
# PU.1 [6] = target: PU.1 (Homo sapiens, UniProt P17947); settings: cited from earlier work
# other ETS family numbers = settings: cited from earlier work
# [7] = system: T-ALL blast cells and TIM-3-high LICs; assay: Pten-null T-ALL mouse model, compound I-1 and/or rapamycin treatment
# Method: To generate a Pten-null T-ALL mouse model, Pten was 40% deleted in mouse fetal liver hematopoietic stem cells (HSCs), followed by PI3K-AKT pathway activation, hematopoietic disorder and T-ALL development. In the T-ALL crisis stage, T-ALL blasts and LICs would infiltrate mouse hematopoietic organs and non-hematopoietic organs.
# After treatment, hematopoietic and non-hematopoietic organ morphology of the mice was analyzed using hematoxylin-eosin (H&E) staining.
# [8] = preventive model, 5mpk i.p., 4 weeks
smiles,measurement,setting,value
"N=C(N)c1ccc2nc(-c3ccc(NC(=O)[C@H]4CCCN4C(=O)[C@H]4CCCN4C(=O)c4ccc(-c5nc6ccc(C(=N)N)cc6[nH]5)cc4)cc3)[nH]c2c1 [Compound I-2, (R)-1-((4-(6-carbamimidoyl-1H-benzo[d]imidazol-2-yl)benzoyl)-D-prolyl)-N-(4-(6-carbamimidoyl-1H-benzo[d]imidazol-2-yl)phenyl)pyrrolidine-2-carboxamide]",inhibition of TIM-3 expression,PU.1 [1],no obvious inhibition
"N=C(N)c1ccc2nc(-c3ccc(NC(=O)[C@@H]4CCCN4C(=O)[C@H]4CCCN4C(=O)c4ccc(-c5nc6ccc(C(=N)N)cc6[nH]5)cc4)cc3)[nH]c2c1 [Compound I-3, (S)-1-((4-(6-carbamimidoyl-1H-benzo[d]imidazol-2-yl)benzoyl)-D-prolyl)-N-(4-(6-carbamimidoyl-1H-benzo[d]imidazol-2-yl)phenyl)pyrrolidine-2-carboxamide]",inhibition of TIM-3 expression,PU.1 [1],no obvious inhibition
"N=C(N)c1ccc2nc(-c3ccc(-c4nc5ccc(C(=N)N)cc5[nH]4)[se]3)[nH]c2c1 [DB1976, reference compound]",skin fibrosis progress,"[2]; preventive model, 5mpk i.p. simultaneously with bleomycin for 4 weeks, vs bleomycin/vehicle",significantly prevented
same,collagen deposition,[2]; [8],reducing
same,epidermal thickness,[2]; [8],reducing
same,mRNA level of Col1a1 and Col1a2,"[2]; preventive model, 5mpk i.p., 4 weeks, skin",decreasing
same,bleomycin-induced skin fibrosis,"[2]; therapeutic model, 3 weeks bleomycin then 3 weeks treatment, 5mpk",significantly alleviated and reversed
same,"pulmonary fibrosis progress (staining, Ashcroft scores, collagen deposition, Col1a1, Col1a2 mRNA)",[3],significantly prevented
same,"metabolic disturbance by NASH diet (body weight, liver fat, ALT, LDL-C, TC, IL-6, IL-1β, Col1a1, Col1a2)",NASH diet-induced NASH,potently alleviated
same,serum triglyceride (TG) and total-cholesterol (TC),"[4]; fasting serum, i.p. once daily for 4 weeks",reduced
same,"body weight, gWAT and iWAT weight radio increased by HFD/CCL4",[4]; i.p. once daily for 4 weeks with CCl4 under HFD,reversed
same,collagen deposition (sirius red staining) and liver mRNA level of Col1a1 and Col1a2,"[4]; mouse, in vivo",reduced
same,liver fibrosis induced by HFD/CCL4 application,"[4]; mouse, in vivo",significantly alleviated
same,"skin, liver and lung fibrosis",[5],alleviated
same,"effects on NASH progress (liver steatosis, inflammation, fibrosis, glucose homeostasis)",NASH,beneficial effects
same,potency as PU.1 inhibitor,PU.1 [6],limited potency
same,activity on other ETS family numbers,other ETS family numbers,inhibitory activity
"CO[C@H]1C[C@@H]2CC[C@@H](C)[C@@](O)(O2)C(=O)C(=O)N2CCCC[C@H]2C(=O)O[C@H]([C@H](C)C[C@@H]2CC[C@@H](O)[C@H](OC)C2)CC(=O)[C@H](C)/C=C(\C)[C@@H](O)[C@@H](OC)C(=O)[C@H](C)C[C@H](C)/C=C/C=C/C=C/1C [rapamycin, reference compound]",proportion of blasts in bone marrow,"[7]; after two days' treatment at blast crisis stage, without treatment 96.4%",13.2%
same,TIM-3 high LICs proportion,"[7]; after two days' treatment, bone marrow, without treatment 33.5%",22.2%
